# Legend:
# [1] = system: EGFRvIII-expressing cells; parameters: method as in Montgomery, 2002; details: ref Montgomery, 2002; cited from earlier work
# [2] = system: LN229/EGFR cells; parameters: method as in Li et al (2003); details: ref Li et al (2003); cited from earlier work
# [3] = system: STAT3; experiment: STAT3 phosphorylation, immunoblot; assay type: cell-based; details: NR6M cells (EGFRvIII-expressing)
# Method: (§1) For determination of phosphorylated proteins, 5 μg whole cell lysate from serum-starved cells was resolved by SDS–PAGE and electroblotted onto nitrocellulose membranes. After transfer and blocking in 5% nonfat milk, primary antibody staining was carried out by incubation overnight at 4°C, and secondary antibody staining was for 1 h at room temperature. The chemiluminescence detection method (ECL) was used for all Western blot experiments.
# (§2) Extracellular regulated kinase-1 and -2 (ERK-2), phospholipase C γ (PLC-γ), protein kinase B (AKT) and the signal transducer and activator of transcription 3 (STAT3) are all essential downstream targets of EGFR and mediate many of its oncogenic effects.
# (§3) Figure 3 (A) Phosphorylation of key signalling molecules upon EGF (10 nM for 10 min) stimulation in the four cell lines.
# [4] = system: ERK; experiment: ERK phosphorylation, immunoblot; assay type: cell-based
# Method: as §1, §2, §3
structure (smiles),measurement,setting,value
COc1cc2ncnc(Nc3cccc(Cl)c3)c2cc1OC [AG1478],Concentration that stimulated colony formation,[1],0.1 µM
COc1cc2ncnc(Nc3cccc(Br)c3)c2cc1OC [PD153035],Concentration that stimulated proliferation,[2],0.05 µM
COc1cc2ncnc(Nc3ccc(F)c(Cl)c3)c2cc1OCCCN1CCOCC1 [gefitinib],Effect on background level of STAT3 phosphorylation,[3],no effect
same,Effect on ERK phosphorylation,"[4]; NR6M cells, 0.1 μM gefitinib, after 48 and 72 h",increased
same,Response of ERK phosphorylations to gefitinib,"[4]; NR6W cells, up to the highest concentrations (2 μM)",unresponsive

# — PMC2361662 (British Journal of Cancer, 2005)
